Reference: patent US8835442B2, “3-substituted 7-imino-2-thioxo-3, 7-dihydro-2H-thiazolo [4,5-di pyrimidin-6-yl—and process for preparation thereof” (Council of Scientific & Industrial Research, priority 2009, dated 2014)
Read-outs that look alike come from different tables or passages of the source.

What was measured:
human A1R = molecular target: T1, human A1R (Homo sapiens, UniProt P30542); experiment: Competitive radioligand binding assay, [3H] DPCPX, membranes of HEK 293 cells stably expressing human A1R
T1 sequence (P30542 1-326): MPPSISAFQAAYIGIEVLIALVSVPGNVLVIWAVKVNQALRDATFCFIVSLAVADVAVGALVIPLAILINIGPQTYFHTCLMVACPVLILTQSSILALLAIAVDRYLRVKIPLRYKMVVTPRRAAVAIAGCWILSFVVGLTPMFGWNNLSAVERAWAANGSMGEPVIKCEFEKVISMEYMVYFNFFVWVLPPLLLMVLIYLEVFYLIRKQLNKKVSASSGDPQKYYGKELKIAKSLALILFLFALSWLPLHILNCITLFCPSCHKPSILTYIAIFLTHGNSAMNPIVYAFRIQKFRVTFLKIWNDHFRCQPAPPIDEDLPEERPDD
Procedure: (§1) Aliquots of membrane proteins from both A2AR and A1R were rapidly frozen and stored at −20° C.
(§2) About 10 μg of membrane protein was added to each well of multiscreen 96-well plate equipped with GF/B filters. Incubation buffer (50 mM Tris, 1 mM EDTA, pH 7.4) containing adenosine deaminase (1 U/ml) was added to each well to remove endogenous adenosine bound to the receptors and volume was adjusted to 100 μl by adding incubation buffer. Plate was incubated at 37° C. for 1 hour. […] Final volume was adjusted to 200 μl by adding incubation buffer and incubated at 26° C. for 30 minutes. Binding reaction was terminated by rapid filteration of filter plates using vacuum manifold system. Filterate (unbound radioligand) was collected in a 96-well plate laying down the filter plate. Filters were washed three times with ice-cold washing buffer (50 mM Tris-Cl; 2.5 mM MgCl2 pH 7.4). Finally, 100 μl of scintillation fluid was added to all wells of plate containing unbound filtrate as well as to the filter plate (bound radioligand) and incubated overnight at room temperature. […] DPCPX were read using β-counter.
(§3) About 10 μg of membrane protein was added to each well of a 96-well filter plate. Incubation buffer containing adenosine deaminase (1 U/ml) was added to the membrane protein and incubated at 37° C. for 1 hour, to remove endogenous adenosine. […] Filter plates were incubated at 26° C. for 30 minutes and reaction was terminated by rapid filtration of unbound radioligands. Filters containing ligand bound receptors were washed three times with ice-cold washing buffer to completely remove any unbound radioligand or receptor. Finally, 100 μl of scintillation fluid was added to each well and incubated overnight at room temperature. β-counts emitted from bound radioligands ([^3H] ZM241385 and [^3H] DPCPX) were counted using β-counter. Duplicate values of β-counts per minute at corresponding concentrations (1 pM to 1 μM) were added to the data sheet of graph pad prism 4.0. Concentration values were considered as X-values and counts per minute were considered as Y-values (in duplicate). X-values were transformed into logX and Ki value was calculated using nonlinear regression (curve fit program).
(§4) Binding parameters were estimated by the computerized non-linear fitting program Graph Pad (Prism 4.0). […] Data were expressed as geometric means with 95% confidence limits in parentheses. […] P<0.05 was considered significant. All analysis was performed by using GraphPad Prism 4.0 (GraphPad Software, San Diego, USA). Results are given, as mean±S.E.M

A2A receptor = molecular target: T2, A2A receptor (Homo sapiens, UniProt P29274); experiment: cAMP functional assay in forskolin-pretreated HEK 293 cells; format: cell-based; settings: 25 μM forskolin 2 h, then 100 nM compound for 24 h
T2 construct: host or cells: HEK 293
T2 sequence (P29274 whole entry): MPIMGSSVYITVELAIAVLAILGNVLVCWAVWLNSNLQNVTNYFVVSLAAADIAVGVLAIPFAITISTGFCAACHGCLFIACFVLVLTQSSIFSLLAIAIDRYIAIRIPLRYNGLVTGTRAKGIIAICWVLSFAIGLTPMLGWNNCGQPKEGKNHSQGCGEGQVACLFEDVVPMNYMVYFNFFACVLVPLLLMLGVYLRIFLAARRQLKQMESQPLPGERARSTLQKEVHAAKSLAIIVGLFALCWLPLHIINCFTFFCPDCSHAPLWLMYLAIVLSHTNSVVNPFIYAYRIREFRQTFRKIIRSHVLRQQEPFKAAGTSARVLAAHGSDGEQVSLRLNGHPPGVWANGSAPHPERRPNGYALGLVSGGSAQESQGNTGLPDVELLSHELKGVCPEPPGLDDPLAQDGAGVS
Procedure: To determine the modulation in cAMP concentrations, cells were pre-treated with Forskolin. Forskolin is commonly used to activate adenylyl cyclase, so as to raise the levels of cAMP, in the various cell physiology experiments. […] Cells were washed with ice-cold PBS (pH 7.4). Further, cells were treated with 0.1M HCl, incubated for 10 minutes and visually inspected to verify cell lysis. Lysed cells were centrifuged at 1000 rpm at room temperature and the supernatant was used directly for cAMP assay using direct cAMP assay kit. All standards and samples were run in duplicate. 50 μl of the neutralizing reagent was added into each well of 96-well microplate coated with goat anti-rabbit IgG antibody, except the total activity (TA) and blank wells. Again, 100 μl of HCl (0.1M) was added into the NSB (Non-specific bound) and the Bo (0 pmol/ml standard) Wells: 100 μl of standards 1 to 5 was pippeted into the appropriate wells. 50 μl of 0.1M HCl was added into the NSB wells, followed by 50 μl of blue conjugate (alkaline phosphatase conjugated with cAMP) into each well except the TA and blank wells. 50 μl of yellow coloured primary antibody against cAMP into each well, except the blank, TA and NSB wells. Microplate was incubated at room temperature for 2 hours on a plate shaker. Wells were washed twice with 400 μl of wash solution. 5 μl of blue conjugate was added to the TA wells, followed by the addition of 200 μl of p-nitrophenyl phosphate substrate solution to every well. Plate was again incubated for 1 hour without shaking. Reaction was stopped by adding 50 μl of stop solution to every well.
The average net O.D. bound for each standard and sample was calculated using formula; Average Net OD=Average bound OD−Average NSB OD
The binding of each pair of standard wells as a percentage of the maximum binding well (Bo) was calculated using the formula; Percent Bound=Net OD/Net Bo OD×100
Standard curve was prepared using Logit-Log Paper plot by drawing percent bound (B/Bo) versus concentration of cAMP for the standards. The concentration of the cAMP in the samples was determined by interpolation.
Binding parameters were estimated by the computerized non-linear fitting program Graph Pad (Prism 4.0). […] Data were expressed as geometric means with 95% confidence limits in parentheses. Estimation of cAMP concentrations in functional assay was carried by Student's paired t-test. P<0.05 was considered significant. All analysis was performed by using GraphPad Prism 4.0 (GraphPad Software, San Diego, USA). Results are given, as mean±S.E.M

human A2AR = human A2AR (Homo sapiens, UniProt P29274); experiment: Competitive radioligand binding assay, [3H] ZM 241385, membranes of HEK 293 cells stably expressing human A2AR; settings: for hA1/hA2A ratio: selectivity: Ki hA1 / Ki hA2A; for selectivity over A1 adenosine receptor: A2AR versus A1R binding
human A2AR, sequence (P29274 whole entry): as above
Procedure: as §1, §2, §3, §4

[1] = read-out: hA1 binding Ki ± SD, displacement of 0.75 nM [3H] DPCPX, HEK 293 membranes, test compounds 1 pM to 1 μM
[2] = read-out: hA2A binding Ki ± SD, displacement of 1 nM [3H] ZM 241385, HEK 293 membranes, test compounds 1 pM to 1 μM

Molecule | Ki (human A1R) [nM] | cAMP concentration (A2A receptor) [nM] | Ki (human A2AR) [nM] | hA1/hA2A ratio (human A2AR) | melting point [°C] | Ki (human A1R; [1]) [nM] | Ki (human A2AR; [2]) [nM] | selectivity over A1 adenosine receptor (human A2AR) [fold]
N=c1c2sc(=S)n(-c3ccccc3)c2ncn1NC(N)=O [Compound 19, (7-Imino-3-phenyl-2-thioxo-3,7-dihydro-2H-thiazolo[4,5-d]pyrimidin-6-yl)-urea] | 1.5 ± 1.1 | 0.078 | 0.063 ± 0.008 | 23.81 | 225 |  |  | 
Furan-2-carboxylic acid (7-imino-3-propenyl-2-thioxo-3,7-dihydro-2H-thiazolo[4,5-d]pyrimidin-6-yl)-amide [Compound 25] |  | 0.084 |  | 3.47 |  | 0.59 ± 0.11 | 0.17 ± 0.1 | 
C=CCn1c(=S)sc2c(=N)n(NC(N)=O)cnc21 [Compound 18] | 0.47 ± 0.1 | 0.08 | 0.092 ± 0.01 | 5.11 | 202 |  |  | 
CCCn1c(=S)sc2c(=N)n(NC(N)=O)cnc21 [Compound 16] |  | 0.14 |  | 736.84 | 220 | 2.8 ± 0.8 | 0.0038 ± 0.001 | 766
CCCCn1c(=S)sc2c(=N)n(NC(N)=O)cnc21 [Compound 17, (7-Imino-3-butyl-2-thioxo-3,7-dihydro-2H-thiazolo[4,5-d]pyrimidin-6-yl)-urea] | 1.04 ± 0.84 | 0.083 | 0.089 ± 0.01 | 11.685 | 222 |  |  | 
N=c1c2sc(=S)n(-c3ccc(I)cc3)c2ncn1NC(N)=O [Compound 20, (3-p-iodophenyl-7-imino-2-thioxo-3,7-dihydro-2H-thiazolo[4,5-d]pyrimidin-6-yl)-urea] | 2.5 ± 1.1 | 0.076 | 0.017 ± 0.01 | 147.06 | 235 |  |  | 144
CCn1c(=S)sc2c(=N)n(NC(N)=O)cnc21 [Compound 15, (3-Ethyl-7-imino-2-thioxo-3,7-dihydro-2H-thiazolo[4,5-d]pyrimidin-6-yl)-urea] |  | 0.085 | 0.09 ± 0.01 | 0.00177 | 212 |  |  | 
N=c1c2sc(=S)n(Cc3ccccc3)c2ncn1NC(N)=O [Compound 21, (3-Benzyl-7-imino-2-thioxo-3,7-dihydro-2H-thiazolo[4,5-d]pyrimidin-6-yl)-urea] | 0.14 ± 0.086 | 0.067 | 0.023 ± 0.014 | 6.09 | 190 |  |  | 

Further lines, results first:

Ki (human A1R) [nM] | cAMP concentration (A2A receptor) [nM] | Ki (human A2AR) [nM] | hA1/hA2A ratio (human A2AR) | melting point [°C] | Ki (human A1R; [1]) [nM] | Ki (human A2AR; [2]) [nM] | selectivity over A1 adenosine receptor (human A2AR) [fold] | Molecule
0.0053 ± 0.001 | 0.06 | 0.029 ± 0.01 | 0.183 | 210 |  |  |  | CCCCn1c(=S)sc2c(=N)n(NC(=O)c3ccco3)cnc21 [Compound 24, Furan-2-carboxylic acid (3-butyl-7-imino-2-thioxo-3,7-dihydro-2H-thiazolo[4,5-d]pyrimidin-6-yl)-amide]
0.0085 ± 0.001 | 0.048 | 0.33 ± 0.75 | 0.026 | 228 |  |  |  | N=c1c2sc(=S)n(-c3ccccc3)c2ncn1NC(=O)c1ccco1 [Compound 26, Furan-2-carboxylic acid (7-imino-3-phenyl-2-thioxo-3,7-dihydro-2H-thiazolo[4,5-d]pyrimidin-6-yl)-amide]
0.016 ± 0.01 | 0.12 | 1.2 ± 1.1 | 0.0133 | 226 |  |  |  | CCn1c(=S)sc2c(=N)n(NC(=O)c3ccco3)cnc21 [Compound 22, Furan-2-carboxylic acid (3-ethyl-7-imino-2-thioxo-3,7-dihydro-2H-thiazolo[4,5-d]pyrimidin-6-yl)-amide]
0.087 ± 0.05 | 0.092 | 0.024 ± 0.01 | 3.625 | 206 |  |  |  | CCCn1c(=S)sc2c(=N)n(NC(=O)c3ccco3)cnc21 [Compound 23, Furan-2-carboxylic acid (7-imino-3-propyl-2-thioxo-3,7-dihydro-2H-thiazolo[4,5-d]pyrimidin-6-yl)-amide]
